Measurements from patent publication EP4375289A1, “PEPTIDE WITH ANTIMICROBIAL ACTIVITY” (Freie Universität Berlin, priority 2022, dated 2024).
pEC50: −log10 of the molar value. Square brackets hold non-standard residues; d marks the D form. Peptide text beside a SMILES is read from it. 2Abz = Nc1ccccc1C(=O)O; Abu = CC[C@H](N)C(=O)O

Legend:
[1] = Peptide-induced membrane disrupting activity; type: biochemical; settings: artificial phospholipid membranes at physiological pH
Experimental: Peptide-induced membrane disrupting activity was determined before by calculation of EC50 values and an increase in bioactivity with a growing degree of side chain fluorination was found.

C. albicans = assay: Minimum inhibitory concentration (MIC) assay, CLSI broth dilution; type: cell-based; settings: C. albicans IMT 9655
red blood cells = type: cell-based; settings: data not shown
Experimental: Hemolysis assays were performed on red blood cells and cytotoxicity tests with two cell lines (HeLa, A549). No potent hemolytic activity for all peptides up to a concentration of 250 µg/mL, corresponding to concentrations of 140 µM (AbuR14) - 125 µM (TfeGlyR14) was determined (data not shown).

P. aeruginosa = assay: Minimum inhibitory concentration (MIC) assay, CLSI broth dilution; type: cell-based; settings: P. aeruginosa ATCC 27853
Experimental: (§1) Minimum inhibitory concentrations (MIC) assays were performed according to Clinical and Laboratory Standards Institute (CLSI) recommendations in cation-adjusted Mueller-Hinton broth (Mueller-Hinton II) broth in flat-bottomed, 96-well plates (Corning, Wiesbaden, Germany) with an inoculum of 10^5 bacteria/well and incubated at 37°C overnight. The optical density of the cultures was determined at 460 and 600 nm immediately after inoculation and after overnight incubation using a BioTek Synergy HT plate reader. Controls included bacterial strains, medium alone and wells without peptide additions. A serial dilution of each peptide was done before bacteria addition. A serial dilution of media including the respective peptide solvent without peptides supplement (Dimethylsulfoxid; Sigma-Aldrich, Taufkirchen, Germany or 1 x phosphate buffered saline; Biochrom, Berlin, Germany) functions as control to ensure the solvent influence on growth.

S. Typhimurium = assay: as above; type: cell-based; settings: S. Typhimurium ATCC 14028
Experimental: as §1

E. coli = assay: as above; type: cell-based; settings: E. coli ATCC 25922
Experimental: as §1

E. faecalis = assay: as above; type: cell-based; settings: E. faecalis ATCC 29212
Experimental: as §1

S. aureus = assay: as above; type: cell-based; settings: S. aureus ATCC 29213
Experimental: as §1

K. pneumoniae = assay: as above; type: cell-based; settings: K. pneumoniae ATCC 700603
Experimental: as §1

SMILES	pEC50 [1]	1*MIC (C. albicans)	No potent hemolytic activity up to a concentration (corresponding concentration) (red blood cells; corresponding to 250 µg/mL)	1*MIC (P. aeruginosa)	1*MIC (S. Typhimurium)	1*MIC (E. coli)	1*MIC (E. faecalis)	1*MIC (S. aureus)	1*MIC (K. pneumoniae)	peptide-induced hemolysis at minimum concentrations (red blood cells; red blood cells)
CC[C@H](NC(=O)[C@H](CCCNC(=N)N)NC(=O)[C@H](CC)NC(=O)[C@H](CCCNC(=N)N)NC(=O)[C@@H](C)NC(=O)c1ccccc1NC(=O)[C@@H](Cc1ccccc1)NC(=O)[C@@H](CC(C)C)NC(=O)[C@H](CCCNC(=N)N)NC(=O)[C@H](CC)NC(=O)[C@H](CCCNC(=N)N)NC(=O)[C@H](CC)NC(=O)[C@H](CCCNC(=N)N)NC(C)=O)C(=O)N[C@@H](CCCNC(=N)N)C(N)=O [AbuR14, Ac-R-Abu-R-Abu-R-[I-f-[2]Abz-a]-R-Abu-R-Abu-R-NH2] (Ac-R[Abu]R[Abu]R[dL][dF][2Abz][dA]R[Abu]R[Abu]R-NH2)	3.83	512 µg/mL	> 140 µM	≥1024 µg/mL	256 µg/mL	128 µg/mL	512 µg/mL	≥1024 µg/mL	≥1024 µg/mL	–
CC(C)C[C@@H](NC(=O)[C@H](CCCNC(=N)N)NC(=O)[C@H](Cc1c[nH]c2ccccc12)NC(=O)[C@H](CCCNC(=N)N)NC(=O)[C@@H](NC(=O)[C@@H](N)CCCNC(=N)N)C(C)C)C(=O)N[C@H](Cc1ccccc1)C(=O)Nc1ccccc1C(=O)N[C@H](C)C(=O)N[C@@H](CCCNC(=N)N)C(=O)N[C@@H](Cc1c[nH]c2ccccc12)C(=O)N[C@@H](CCCNC(=N)N)C(=O)N[C@H](C(=O)N[C@@H](CCCNC(=N)N)C(=O)O)C(C)C [SAJO-2, H-R-Val-R-Trp-R-[I-f-[2]Abz-a]-R-Trp-R-Val-R-OH, reference compound] (H-RVRWR[dL][dF][2Abz][dA]RWRVR-OH; N-terminus and C-terminus assumed)	4.15	–	–	–	–	–	–	–	–	≥ 0.5 mg/mL
